ChEMBL document CHEMBL1201862, “PubChem BioAssay data set” (2004)
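Following 48 hours of exposure in 96-well plates, responses at five concentrations were used to interpolate endpoints linearly. At the GI50, growth is halved.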 Active and inactive are the calls of the source. Rule as the data show it: active = GI50 up to about 1.1 µM and inactive = higher.

How the values were obtained:
Test in all cases: growth of human tumour cells (NCI), 48 h
[1] = test system: A549
[2] = test system: CAKI-1
[3] = test system: DU-145
[4] = test system: Hs-578T
[5] = test system: EKVX
[6] = test system: LOX IMVI
[7] = test system: OVCAR-3
[8] = test system: Malme-3M
[9] = test system: UACC-62
[10] = test system: TK-10
[11] = test system: NCI-H23
[12] = test system: PC-3
[13] = test system: HOP-62
[14] = test system: NCI/ADR-RES
[15] = test system: IGROV-1
[16] = test system: MDA-MB-231
[17] = test system: OVCAR-5
[18] = test system: SF-539
[19] = test system: UO-31
[20] = test system: SNB-75

| Structure (SMILES) | GI50 [1] | GI50 [2] | GI50 [3] | GI50 [4] | GI50 [5] | GI50 [6] | GI50 [7] | GI50 [8] | GI50 [9] | GI50 [10] | GI50 [11] | GI50 [12] | GI50 [13] | GI50 [14] | GI50 [15] | GI50 [16] | GI50 [17] | GI50 [18] | GI50 [19] | GI50 [20] |
| --- | --- | --- | --- | --- | --- | --- | --- | --- | --- | --- | --- | --- | --- | --- | --- | --- | --- | --- | --- | --- |
| COC(=O)C1(C)CCCC2(C)c3cc(OC)ccc3C(=O)C(Br)C12 (stereo not given) | > 10 µM (inactive) | 4.05 µM (inactive) | > 10 µM (inactive) | > 10 µM (inactive) | > 10 µM (inactive) | > 10 µM (inactive) | 5.35 µM (inactive) | 2.72 µM (inactive) | > 10 µM (inactive) | > 10 µM (inactive) | > 10 µM (inactive) | 9.73 µM (inactive) | > 10 µM (inactive) | > 10 µM (inactive) | > 10 µM (inactive) | 3.35 µM (inactive) | 8.02 µM (inactive) | > 10 µM (inactive) | 1.84 µM (inactive) | – |
| O=C1NC(Nc2ccccc2)=NC(C(F)(F)F)(C(F)(F)F)N1 | 40.9 µM (inactive) | – | 35.9 µM (inactive) | 55.3 µM (inactive) | 38.4 µM (inactive) | 37.2 µM (inactive) | 37.9 µM (inactive) | 30.1 µM (inactive) | 50.4 µM (inactive) | 68.4 µM (inactive) | 23.4 µM (inactive) | 20.5 µM (inactive) | 53.3 µM (inactive) | 71.1 µM (inactive) | 54 µM (inactive) | 57.1 µM (inactive) | 42.8 µM (inactive) | 74.5 µM (inactive) | 30.8 µM (inactive) | 11.5 µM (inactive) |
| O=C1Nc2c(Cl)cc(Cl)cc2/C1=N/N=C/c1ccccc1O | 29.2 µM (inactive) | 19.4 µM (inactive) | – | 26.5 µM (inactive) | 11.5 µM (inactive) | 16.3 µM (inactive) | 16.3 µM (inactive) | 27.9 µM (inactive) | 17.2 µM (inactive) | 36.8 µM (inactive) | 19.5 µM (inactive) | 19.5 µM (inactive) | 17.2 µM (inactive) | 19.5 µM (inactive) | 26.1 µM (inactive) | 19.8 µM (inactive) | 21.5 µM (inactive) | 20.6 µM (inactive) | 27.6 µM (inactive) | 23.5 µM (inactive) |
| CC1=C/C(=N/N2C(=O)/C(=C/c3ccc(Cl)cc3)N=C2c2ccccc2)CC(C)(C)C1 | 78.2 µM (inactive) | > 100 µM (inactive) | – | 52 µM (inactive) | 81.7 µM (inactive) | 42.1 µM (inactive) | – | > 100 µM (inactive) | 61.9 µM (inactive) | 89.5 µM (inactive) | > 100 µM (inactive) | 61.2 µM (inactive) | 54.2 µM (inactive) | 60.7 µM (inactive) | 52.1 µM (inactive) | > 100 µM (inactive) | > 100 µM (inactive) | 47.1 µM (inactive) | > 100 µM (inactive) | 31.5 µM (inactive) |
| COC1C(O)CC(OC2CC(OC3CC(O[C@@H]4C(=O)c5c(cc6cc(OC7CC(OC8CC(O)C(O)C(C)O8)C(O)C(C)O7)c(C)c(O)c6c5O)C[C@H]4[C@H](OC)C(=O)[C@@H](O)[C@@H](C)O)OC(C)C3O)OC(C)C2O)OC1C (stereo not given in full) | < 0.0151 µM (active) | 0.356 µM (active) | < 0.01 µM (active) | < 0.01 µM (active) | 0.034 µM (active) | – | < 0.0271 µM (active) | < 0.0126 µM (active) | < 0.0131 µM (active) | 0.0431 µM (active) | – | – | < 0.012 µM (active) | – | – | 0.0574 µM (active) | < 0.0175 µM (active) | < 0.0119 µM (active) | 0.0318 µM (active) | < 0.0331 µM (active) |
| COC(=O)CCc1cc(OC)c2c(c1)[C@H](C(=O)OC)[C@@H](c1ccc(O)c(OC)c1)O2 | 39.5 µM (inactive) | – | > 100 µM (inactive) | 38.4 µM (inactive) | 58.2 µM (inactive) | 57.5 µM (inactive) | 47.2 µM (inactive) | 29.9 µM (inactive) | 39.8 µM (inactive) | > 100 µM (inactive) | 38.5 µM (inactive) | 91.8 µM (inactive) | 77.1 µM (inactive) | 40.9 µM (inactive) | 61.8 µM (inactive) | 50.6 µM (inactive) | > 100 µM (inactive) | 48.2 µM (inactive) | 52.1 µM (inactive) | 43.3 µM (inactive) |
| CCCC(=O)NC1=C(NCC)C(=O)c2ccccc2C1=O | > 100 µM (inactive) | – | > 100 µM (inactive) | > 100 µM (inactive) | – | – | 34.2 µM (inactive) | 38.5 µM (inactive) | > 100 µM (inactive) | > 100 µM (inactive) | > 100 µM (inactive) | 40.9 µM (inactive) | > 100 µM (inactive) | > 10 µM (inactive) | > 100 µM (inactive) | 83.4 µM (inactive) | > 100 µM (inactive) | > 100 µM (inactive) | – | > 100 µM (inactive) |
| C1CSC(Sc2nc(SC3=NCCS3)nc(SC3=NCCS3)n2)=N1 | > 100 µM (inactive) | > 100 µM (inactive) | > 100 µM (inactive) | > 100 µM (inactive) | > 100 µM (inactive) | > 100 µM (inactive) | > 100 µM (inactive) | > 100 µM (inactive) | > 100 µM (inactive) | > 100 µM (inactive) | > 100 µM (inactive) | > 100 µM (inactive) | > 100 µM (inactive) | > 100 µM (inactive) | > 100 µM (inactive) | > 100 µM (inactive) | > 100 µM (inactive) | > 100 µM (inactive) | > 100 µM (inactive) | – |
| CC(C)CC(NC(=O)C(Cc1ccccc1)NC(=O)[C@H]1CC[C@H](NC(=O)C(Cc2ccc(OC(C)(C)C)cc2)NC(=O)OC(C)(C)C)C1)C(N)=O (stereo not given in full) | 50.9 µM (inactive) | > 100 µM (inactive) | – | 11.5 µM (inactive) | > 100 µM (inactive) | 17.1 µM (inactive) | 25.9 µM (inactive) | 26.4 µM (inactive) | 18.7 µM (inactive) | 29.3 µM (inactive) | 16.2 µM (inactive) | 18.1 µM (inactive) | 36.2 µM (inactive) | > 100 µM (inactive) | 23.1 µM (inactive) | 31.9 µM (inactive) | 31 µM (inactive) | 14.4 µM (inactive) | 47 µM (inactive) | 27.8 µM (inactive) |
| COC(=O)C1(Cc2ccccc2)Cc2c(C)ccc(C)c2C1=O (stereo not given) | 11.1 µM (inactive) | – | 49.2 µM (inactive) | 5.64 µM (inactive) | 4.69 µM (inactive) | 17.2 µM (inactive) | 29.2 µM (inactive) | 21.4 µM (inactive) | 11.5 µM (inactive) | 49 µM (inactive) | 24.2 µM (inactive) | 26.3 µM (inactive) | 56.9 µM (inactive) | 28.1 µM (inactive) | 36.7 µM (inactive) | 15.7 µM (inactive) | 69.5 µM (inactive) | 39.9 µM (inactive) | 10.8 µM (inactive) | 17.3 µM (inactive) |
| COC(=O)Cc1cccc2c1CCC2=O | > 100 µM (inactive) | – | > 100 µM (inactive) | > 100 µM (inactive) | > 100 µM (inactive) | > 100 µM (inactive) | > 100 µM (inactive) | > 100 µM (inactive) | > 100 µM (inactive) | > 100 µM (inactive) | > 100 µM (inactive) | > 100 µM (inactive) | > 100 µM (inactive) | > 100 µM (inactive) | > 100 µM (inactive) | > 100 µM (inactive) | > 100 µM (inactive) | > 100 µM (inactive) | > 100 µM (inactive) | > 100 µM (inactive) |
| CC(C)C1CC(CO)(CNc2cc(Cl)nc(N)n2)C1 (stereo not given) | 39.2 µM (inactive) | > 100 µM (inactive) | > 100 µM (inactive) | 25.6 µM (inactive) | 7.06 µM (inactive) | 10.4 µM (inactive) | 17.9 µM (inactive) | 39.2 µM (inactive) | > 100 µM (inactive) | > 100 µM (inactive) | – | 71 µM (inactive) | > 100 µM (inactive) | 16.8 µM (inactive) | > 100 µM (inactive) | 94 µM (inactive) | 81.8 µM (inactive) | 73.8 µM (inactive) | 54 µM (inactive) | – |
| c1cc(-c2ccsc2-c2ccsc2)cs1 | 46.3 µM (inactive) | > 100 µM (inactive) | – | 59.3 µM (inactive) | > 100 µM (inactive) | 55.3 µM (inactive) | 23.8 µM (inactive) | 26.9 µM (inactive) | > 88.9 µM (inactive) | > 100 µM (inactive) | 46.3 µM (inactive) | > 100 µM (inactive) | 77.3 µM (inactive) | > 100 µM (inactive) | > 79.3 µM (inactive) | > 100 µM (inactive) | > 100 µM (inactive) | > 100 µM (inactive) | > 90.6 µM (inactive) | 44.5 µM (inactive) |
| CN(c1cn(C2CC[C@@H](CO)O2)c(=O)[nH]c1=O)C1CCCCC1 (stereo not given in full) | > 100 µM (inactive) | – | > 100 µM (inactive) | 30 µM (inactive) | – | > 100 µM (inactive) | > 100 µM (inactive) | > 100 µM (inactive) | > 100 µM (inactive) | > 100 µM (inactive) | > 100 µM (inactive) | > 100 µM (inactive) | > 100 µM (inactive) | > 100 µM (inactive) | > 100 µM (inactive) | > 100 µM (inactive) | > 100 µM (inactive) | > 100 µM (inactive) | > 100 µM (inactive) | 21.9 µM (inactive) |
| CC(=O)c1cccc(NC(=O)C(=O)c2c(O)oc3ccccc3c2=O)c1 | > 100 µM (inactive) | > 100 µM (inactive) | – | > 100 µM (inactive) | > 100 µM (inactive) | > 100 µM (inactive) | > 100 µM (inactive) | > 100 µM (inactive) | > 100 µM (inactive) | > 100 µM (inactive) | > 100 µM (inactive) | > 100 µM (inactive) | > 100 µM (inactive) | > 100 µM (inactive) | > 100 µM (inactive) | > 100 µM (inactive) | > 100 µM (inactive) | > 100 µM (inactive) | > 100 µM (inactive) | > 100 µM (inactive) |
